Test results published in patent US9682995B2, “Amino-substituted isothiazoles” (BAYER PHARMA AKTIENGESELLSCHAFT, priority 2013, dated 2017).

Legend:
CDK2/CycE = CDK2/CycE (Homo sapiens (Human), UniProt P24941); experiment: CDK2/CycE kinase assay (TR-FRET); type: biochemical; conditions: 10 μM ATP; read-out: CDK2 avg (IC50 [mol/l])
Description: CDK2/CycE-inhibitory activity of compounds of the present invention was quantified employing the CDK2/CycE TR-FRET assay as described in the following paragraphs.
Recombinant fusion proteins of GST and human CDK2 and of GST and human CycE, expressed in insect cells (Sf9) and purified by Glutathion-Sepharose affinity chromatography, were purchased from ProQinase GmbH (Freiburg, Germany). As substrate for the kinase reaction biotinylated peptide biotin-Ttds-YISPLKSPYKISEG (C-terminus in amid form) was used which can be purchased e.g. form the company JERINI peptide technologies (Berlin, Germany).
For the assay 50 nl of a 100 fold concentrated solution of the test compound in DMSO was pipetted into a black low volume 384 well microtiter plate (Greiner Bio-One, Frickenhausen, Germany), 2 μl of a solution of CDK2/CycE in aqueous assay buffer [50 mM Tris/HCl pH 8.0, 10 mM MgCl2, 1.0 mM dithiothreitol, 0.1 mM sodium ortho-vanadate, 0.01% (v/v) Nonidet-P40 (Sigma)] were added and the mixture was incubated for 15 min at 22° C. to allow pre-binding of the test compounds to the enzyme before the start of the kinase reaction. Then the kinase reaction was started by the addition of 3 μl of a solution of adenosine-tri-phosphate (ATP, 16.7 μM=>final conc. in the 5 μl assay volume is 10 μM) and substrate (1.25 μM=>final conc. in the 5 μl assay volume is 0.75 μM) in assay buffer and the resulting mixture was incubated for a reaction time of 25 min at 22° C. The concentration of CDK2/CycE was adjusted depending of the activity of the enzyme lot and was chosen appropriate to have the assay in the linear range, typical concentrations were in the range of 130 ng/ml. The reaction was stopped by the addition of 5 μl of a solution of TR-FRET detection reagents (0.2 μM streptavidine-XL665 [Cisbio Bioassays, Codolet, France] and 1 nM anti-RB(pSer807/pSer811)-antibody from BD Pharmingen [#558389] and 1.2 nM LANCE EU-W1024 labeled anti-mouse IgG antibody [Perkin-Elmer, product no. AD0077, as an alternative a Terbium-cryptate-labeled anti-mouse IgG antibody from Cisbio Bioassays can be used]) in an aqueous EDTA-solution (100 mM EDTA, 0.2% (w/v) bovine serum albumin in 100 mM HEPES/NaOH pH 7.0).
The resulting mixture was incubated 1 h at 22° C. to allow the formation of complex between the phosphorylated biotinylated peptide and the detection reagents. Subsequently the amount of phosphorylated substrate was evaluated by measurement of the resonance energy transfer from the Eu-chelate to the streptavidine-XL. Therefore, the fluorescence emissions at 620 nm and 665 nm after excitation at 350 nm was measured in a TR-FRET reader, e.g. a Rubystar (BMG Labtechnologies, Offenburg, Germany) or a Viewlux (Perkin-Elmer). The ratio of the emissions at 665 nm and at […] was taken as the measure for the amount of phosphorylated substrate. The data were normalised (enzyme reaction without inhibitor=0% inhibition, all other assay components but no enzyme=100% inhibition).

HeLa = experiment: Proliferation assay (crystal violet), HeLa; type: cell-based; conditions: Homo sapiens, 96 h, 4 days, read-out: Inhibition of proliferation IC50 HeLa
Procedure: Cultivated tumor cells (cells were ordered from ATCC, except HeLa-MaTu and HeLa-MaTu-ADR, which were ordered from EPO-GmbH, Berlin) were plated at a density of 1000 to 5000 cells/well, depending on the growth rate of the respective cell line, in a 96-well multititer plate in 200 μL of their respective growth medium supplemented 10% fetal calf serum. After 24 hours, the cells of one plate (zero-point plate) were stained with crystal violet (see below), while the medium of the other plates was replaced by fresh culture medium (200 μl), to which the test substances were added in various concentrations (0 μM, as well as in the range of 0.001-10 μM; the final concentration of the solvent dimethyl sulfoxide was 0.5%). The cells were incubated for 4 days in the presence of test substances. Cell proliferation was determined by staining the cells with crystal violet: the cells were fixed by adding 20 μl/measuring point of an 11% glutaric aldehyde solution for 15 minutes at room temperature. After three washing cycles of the fixed cells with water, the plates were dried at room temperature. The cells were stained by adding 100 μl/measuring point of a 0.1% crystal violet solution (pH 3.0). After three washing cycles of the stained cells with water, the plates were dried at room temperature. The dye was dissolved by adding 100 μl/measuring point of a 10% acetic acid solution. Absorption was determined by photometry at a wavelength of 595 nm. The change of cell number, in percent, was calculated by normalization of the measured values to the absorption values of the zero-point plate (=0%) and the absorption of the untreated (0 μm) cells (=100%). The IC50 values were determined by means of a 4 parameter fit.

| IC50 (CDK2/CycE) [µM] | IC50 (HeLa) [µM] | Compound |
| --- | --- | --- |
| > 20 | 1 | Cc1nsc(Nc2nc3c(C(F)(F)F)cccc3s2)c1C(=O)Nc1ccc(Cl)c(F)c1 [Example 53, N-(4-Chloro-3-fluorophenyl)-3-methyl-5-{[4-(trifluoromethyl)-1,3-benzothiazol-2-yl]amino}-1,2-thiazole-4-carboxamide] |
| > 20 | 3 | CCc1ccccc1NC(=O)c1c(C)nsc1Nc1ccc(C#N)cn1 [Example 7, 5-[(5-Cyanopyridin-2-yl)amino]-N-(2-ethylphenyl)-3-methyl-1,2-thiazole-4-carboxamide] |
| > 20 | 1.1 | Cc1nsc(Nc2cc(C#N)ccn2)c1C(=O)Nc1ccc(Oc2ccc(F)cc2F)nc1 [Example 114, 5-[(4-Cyanopyridin-2-yl)amino]-N-[6-(2,4-difluorophenoxy)pyridin-3-yl]-3-methyl-1,2-thiazole-4-carboxamide] |
| > 20 | 2.4 | COc1ccc(NC(=O)c2c(C)nsc2Nc2cnc3ccc(F)cc3n2)cn1 [Example 44, 5-[(7-Fluoroquinoxalin-2-yl)amino]-N-(6-methoxypyridin-3-yl)-3-methyl-1,2-thiazole-4-carboxamide] |
| > 20 | 1.7 | Cc1nsc(Nc2cc(C#N)ccn2)c1C(=O)Nc1ccc(OC2CCCCC2)nc1 [Example 118, 5-[(4-Cyanopyridin-2-yl)amino]-N-[6-(cyclohexyloxy)pyridin-3-yl]-3-methyl-1,2-thiazole-4-carboxamide] |
| > 20 | 9.5 | CCc1ccccc1NC(=O)c1c(C)nsc1Nc1ncnc2sccc12 [Example 12, N-(2-Ethylphenyl)-3-methyl-5-(thieno[2,3-d]pyrimidin-4-ylamino)-1,2-thiazole-4-carboxamide] |
| > 20 | 3.3 | CCOc1ccc(NC(=O)c2c(C)nsc2Nc2cnc3ccccc3n2)cn1 [Example 119, N-(6-Ethoxypyridin-3-yl)-3-methyl-5-(quinoxalin-2-ylamino)-1,2-thiazole-4-carboxamide] |
| > 20 | 10 | CCOC(=O)c1coc(Nc2snc(C)c2C(=O)Nc2ccc(OC)nc2)n1 [Example 100, Ethyl 2-({4-[(6-methoxypyridin-3-yl)carbamoyl]-3 methyl-1,2-thiazol-5-yl}amino)-1,3-oxazole-4-carboxylate] |
| > 20 | 0.79 | Cc1nsc(Nc2cnccn2)c1C(=O)Nc1ccc(Cl)c(F)c1 [Example 56, N-(4-Chloro-3-fluorophenyl)-3-methyl-5-(pyrazin-2-ylamino)-1,2-thiazole-4-carboxamide] |
| > 20 | 1 | CCc1ccccc1NC(=O)c1c(C)nsc1Nc1nc2ccccc2s1 [Example 14, 5-(1,3-Benzothiazol-2-ylamino)-N-(2-ethylphenyl)-3-methyl-1,2-thiazole-4-carboxamide] |
| > 20 | > 10 | CCc1ccccc1NC(=O)c1c(C)nsc1Nc1ncnc2ccsc12 [Example 13, N-(2-Ethylphenyl)-3-methyl-5-(thieno[3,2-d]pyrimidin-4-ylamino)-1,2-thiazole-4-carboxamide] |
| > 20 | 6.7 | CCc1ccccc1NC(=O)c1c(C)nsc1Nc1nccnc1C#N [Example 34, 5-[(3-Cyanopyrazin-2-yl)amino]-N-(2-ethylphenyl)-3-methyl-1,2-thiazole-4-carboxamide] |
| > 20 | 3.3 | COc1ncc(NC(=O)c2c(C)nsc2Nc2cnc3ccccc3n2)cc1C [Example 121, N-(6-Methoxy-5-methylpyridin-3-yl)-3-methyl-5-(quinoxalin-2-ylamino)-1,2-thiazole-4-carboxamide] |
| > 20 | 10 | COC(=O)c1cnc(Nc2snc(C)c2C(=O)Nc2ccc(F)c(F)c2)o1 [Example 97, Methyl 2-({4-[(3,4-difluoro-phenyl)carbamoyl]-3-methyl-1,2-thiazol-5-yl}amino)-1,3-oxazole-5-carboxylate] |
| > 20 | 2.5 | CCc1ccccc1NC(=O)c1c(C)nsc1Nc1cnc2ccccc2n1 [Example 19, N-(2-Ethylphenyl)-3-methyl-5-(quinoxalin-2-ylamino)-1,2-thiazole-4-carboxamide] |
| > 20 | 3.2 | CCc1ccccc1NC(=O)c1c(C)nsc1Nc1ccnc(C#N)n1 [Example 6, 5-[(2-Cyanopyrimidin-4-yl)amino]-N-(2-ethylphenyl)-3-methyl-1,2-thiazole-4-carboxamide] |
| > 20 | 3.7 | Cc1nsc(Nc2cncc(C(=O)N3CCCC3)n2)c1C(=O)Nc1ccc(F)c(F)c1 [Example 106, N-(3,4-Difluorophenyl)-3-methyl-5-{[6-(pyrrolidin-1-ylcarbonyl)pyrazin-2-yl]amino}-1,2-thiazole-4-carboxamide] |
| > 20 | 10 | CCOC(=O)c1cnc(Nc2snc(C)c2C(=O)Nc2ccc(F)c(F)c2)o1 [Example 96, Ethyl 2-({4-[(3,4-difluorophenyl)carbamoyl]-3-methyl-1,2-thiazol-5-yl}amino)-1,3-oxazole-5-carboxylate] |
| > 20 | 1.9 | COc1ncc(NC(=O)c2c(C)nsc2Nc2ccc(C#N)cn2)cc1C [Example 120, 5-[(5-Cyanopyridin-2-yl)amino]-N-(6-methoxy-5-methylpyridin-3-yl)-3-methyl-1,2-thiazole-4-carboxamide] |
| > 20 | 1.2 | COc1ccc(NC(=O)c2c(C)nsc2Nc2cnc3ccc(Cl)cc3n2)cn1 [Example 42, 5-[(7-Chloroquinoxalin-2-yl)amino]-N-(6-methoxypyridin-3-yl)-3-methyl-1,2-thiazole-4-carboxamide] |
| > 20 | > 10 | COC(=O)c1ccc(Nc2snc(C)c2C(=O)Nc2ccc(OC)nc2)nc1 [Example 31, Methyl 6-({4-[(6-methoxypyridin-3-yl)carbamoyl]-3-methyl-1,2-thiazol-5-yl}amino)-nicotinate] |
| > 20 | 1.2 | CCc1ccccc1NC(=O)c1c(C)nsc1Nc1nc(C)nc2ccccc12 [Example 35, N-(2-Ethylphenyl)-3-methyl-5-[(2-methylquinazolin-4-yl)amino]-1,2-thiazole-4-carboxamide] |
| > 20 | 10 | Cc1nsc(Nc2cncc(N(C)C)n2)c1C(=O)Nc1ccc(F)c(F)c1 [Example 105, N-(3,4-Difluorophenyl)-5-{[6-(dimethylamino)pyrazin-2-yl]amino}-3-methyl-1,2-thiazole-4-carboxamide] |
| > 20 | 1.3 | CCc1ccccc1NC(=O)c1c(C)nsc1Nc1cnc2ccc(Cl)cc2n1 [Example 41, 5-[(7-Chloroquinoxalin-2-yl)amino]-N-(2-ethylphenyl)-3-methyl-1,2-thiazole-4-carboxamide] |
